Experimental data: patent US8563254B2, “Biomarkers of tumor pharmacodynamic response” (Novartis AG, priority 2009, dated 2013)

Key:
A375 cells = experiment: Western blot of total protein lysates, A375; assay type: cell-based, human; details: A375, 0.3 μM, 16 hr and 24 hr
Method: Total protein lysates were prepared from the GTL-16 and A375 cells with RIPA lysis buffer (Upstate, Millipore Corporation, Charlottesville, Va., USA). Cells were washed with PBS and 500 ul of ice-cold RIPA buffer, containing protease inhibitor cocktail tablet (Roche Diagnostic GmbH, Mannheim, Germany) and phosphatase inhibitors (Sigma-Aldrich, Inc., St. Louis, Mo., USA), was added to each plate on ice. After 15 min the cells were scrapped from the plate surface and spun at 16000 RPM for 10 min at 4° C. The supernatant was collected and frozen at −80° C. Nuclear protein fractions were prepared by the NE-PER nuclear and cytoplasmic extraction kit (Pierce Biotechnology, Rockford, Ill., USA). Proteins were quantified by bicinchoninic acid assay (Pierce Biotechnology, Rockford, Ill., USA) for Western blotting. Primary antibodies specific for NFκB p65, cREL, p-ERK1/2, p-c-jun, ERK1 and Jun were purchased from Santa Cruz Biotechnology (Santa Cruz Biotechnology, Inc., Santa Cruz, Calif., USA) with the exception of Hsp70 and TBP (nuclear loading control), which were obtained from StressGen (StressGen, Assay Designs, Inc., Aim Arbor, Mich., USA) and Abcam (Abcam Inc., Cambridge, Mass., USA), respectively. 4-12% Bis-Tris SDS-PAGE, denaturing, non-reducing gels were loaded with 30 μg of total protein, a SeeBlue2Plus pre-stained protein standard and MES SDS running buffer were utilized for the electrophoretic separation in a XCell SureLock™ Mini-Cell (Invitrogen Corporation, Inc., Carlsbad, Calif., USA). An iBlot™ gel transfer PVDF stack with iBlot™ gel transfer system (Invitrogen) was used. An Odyssey Infrared Imaging System was used to detect the immunocomplex (Li-COR Biotechnologies, Inc., Lincoln, Nebr., USA). Li-COR blocking buffer was used to limit cross-reactivity. Membranes were incubated at 4° C. overnight in the primary antibody diluted in blocking buffer, followed by 1 hr room temperature incubation with a secondary IgG antibody (Li-COR IR dye, Li-COR).

[1] = system: GTL-16 tumor-bearing mice; experiment: Serum IL-8 / mouse KC in GTL-16 mouse xenograft model; assay type: in vivo
Method: (§1) The in vivo study was carried out in strict accordance with Swiss law for animal protection and was approved by the Swiss Cantonal Veterinary Office of Basel-Stadt. GTL-16 (4×10^6) and A375 cells (5×10^6) were inoculated subcutaneously in the right flank in 200 μl Hanks' balanced salt solution (HBSS) or PBS, respectively. Invasive procedures were performed under Forene anesthesia. All experiments were performed in female Harlan HsdNpa: Athymic Nude-nu mice (Laboratory Animal Services, Novartis Pharma AG, Basel). The animals were kept under optimized hygienic conditions with 12 hr dark, 12 hr light conditions. The animals were fed food and water ad libitum. A single 75 mg/kg and 50 mg/kg dose of Hsp90 inhibitor, NVP-AUY922 was administered to the GTL-16 and A375 tumor-bearing mice, when tumors had reached a mean volume of 200 mm^3-500 mm^3 in size. Mice in the control group were injected with the vehicle (D5W). Serum was isolated and tumors dissected over the time course 0-168 hr. Tumors were cut in two halves. One half was paraffin embedded and the other snap frozen, and stored at −80° C.
(§2) Human IL-8 levels in cell culture supernatants treated with NVP-AUY922 were initially assessed as part of a multiplexed bead-based cytokine panel (hu 27-plex panel I, Bio-rad Laboratories, Hercules, Calif., USA) with a BioPlex Suspension Array System (Bio-rad). Human IL-8 and mouse KC levels in serum derived from GTL-16 and A375 tumor-bearing mice treated with NVP-AUY922 were measured by single-plex cytokine bead-based assay (Milliplex, Millipore, Billerica, Mass., USA). The BioPlex system uses a liquid suspension array of beads. The beads align in a single file through a flow cell to the detector, where a red classification laser at a wavelength of 635 nm and a green reporter laser at a wavelength of 532 nm are used to identify each bead's spectral address and associated reporter signal, respectively.

A375 tumor-bearing mice = experiment: Serum IL-8 / mouse KC in A375 mouse xenograft model; assay type: in vivo; set-up: drop of serum IL-8 levels / time at which serum IL-8 recovered to pre-treatment level: dose or concentration left out as unconfirmed
Method: as §1, with “A single 75 mg/kg and 50 mg/kg dose of Hsp90 inhibitor, NVP-AUY922 was administered to the GTL-16 and A375 tumor-bearing mice, when tumors had reached a mean volume of 200 mm^3-500 mm^3 in size.” left out
as §2

CCNC(=O)c1noc(-c2cc(C(C)C)c(O)cc2O)c1-c1ccc(CN2CCOCC2)cc1 [NVP-AUY922, 5-(2,4-Dihydroxy-5-isopropyl-phenyl)-4-(4-morhpolin-4-ylmethyl-phenyl)-isoxazole-3-carboxylic acid ethylamide]
Hsp70 induction (A375 cells): induction was observed
levels of phospho-ERK1/2 and phospho-c-Jun (A375 cells): significantly diminished
total ERK and c-Jun levels (A375 cells): unaffected
total cellular levels of NFκB p65 and c-REL (A375 cells): essentially unchanged
murine IL-8 levels, measured indirectly as mu KC ([1]; serum): unchanged
earliest time of significant decrease in serum IL-8 ([1]; single 75 mg/kg dose): 6 h
time by which serum IL-8 recovers to pre-treatment levels ([1]; single 75 mg/kg dose): ≤ 72 h
maximum decline of serum IL-8 levels ([1]; single 75 mg/kg dose, 12 hr post-treatment): approximately 70%
time at which serum IL-8 recovered to pre-treatment level (A375 tumor-bearing mice): 168 h
drop of serum IL-8 levels (A375 tumor-bearing mice; 48 hr post-treatment): approximately 40%
murine IL-8 levels, measured indirectly as mu KC (A375 tumor-bearing mice; serum): unchanged
